This is an account of results in patent US20190111040A1, “IN VIVO AMELIORATION OF ENDOGENOUS ANTI-TUMOR AUTOANTIBODIES TARGETING SURFACE TUMOR ANTIGENS VIA LOW-DOSE P4N” (THE JOHNS HOPKINS UNIVERSITY, priority 2016, published 2019).

Structures can show the parent of a compound that is named as a salt.

For one test, the system named is human PBMCs. The experiment in a line: PBMC proliferation assay. In kind it is cell-based. To be noted: 48 h. The method, then:
PBMC proliferation assay. Two hundred microliters of PBMCs (5×10^4 cells/ml) were seeded in each well of a 96-well culture plate and treated with increasing concentrations of P4N (0.38, 0.75, 1.5, 3 or 6 μM) for 48 h. The number of viable cells was evaluated by MTT assay and a cell proliferation index was calculated as follows: Proliferation index=(OD595 of sample)/(OD595 of the untreated cells)×100%. PBMCs were also treated with or without P4N (0.75, 1.5 or 3 μM) for 48 h, and probed with anti-CD20 antibodies (Roche, Mannheim, Germany) and FITC-conjugated goat anti-human IgG polyclonal antibodies (SouthernBiotech, Birmingham, Ala.). The percentage of B cells in treated PBMCs was determined by flow cytometry (BD Biosciences, Mountain View, Calif.), and the indices of B cell proliferation were calculated as follows: (the number of PBMCs×the percentage of B cells in treated PBMCs)/(the number of PBMCs×the percentage of B cells in untreated PBMCs).

A further test concerns CT26 tumors. The experiment in a line: P4N treatments in vivo, CT-26 tumors in BALB/c mice. The following applies: one intratumoral injection of 2.5 mg/kg or 5 mg/kg. How it is done:
P4N treatments in vivo. BALB/c or BALB/c/nu mice (6 week old) were inoculated subcutaneously with 1×10^6 CT-26 cells in 100 μl PBS. When the average tumor mass reached 50 mm^3, the animals were treated with 2.5 mg/kg or 5 mg/kg of P4N in one intratumoral injection. Subsequently, the tumor volumes were measured using a caliper every 2 days, and the volumes were calculated using the following formula: volume (mm^3)=length×width×height. Before sacrifice, the sera of the mice were collected for experimental use.

Consider `C[C@H](Cc1ccc(OCCN2CCCCC2)c(OCCN2CCCCC2)c1)[C@@H](C)Cc1ccc(OCCN2CCCCC2)c(OCCN2CCCCC2)c1` [P4N, meso-2,3-dimethyl-1,4-bis(3,4-[2-(piperidino)ethoxyphenyl])butane tetrakishydrochloride salt], for which the “increase of PBMC proliferation” value with human PBMCs (depending on the dose of P4N (0.38-6 μM), MTT) was 10-35%. Further, in the test on human PBMCs (flow cytometry), the “proliferation of the B cell population in human PBMCs” value is reported as “significantly increased”. The “growth of CT26 tumors” value in the test with CT26 tumors is listed as “significantly inhibited”.
